Data taken from patent US20050037436A1, “Test systems and the use thereof for identifying and characterizing compounds” (priority 2000, published 2005).

How the values were obtained:
[1] = test system: HC110-R; experiment: Ca2+ imaging of HEK-293 cells expressing HC110-R-Myc/His; type: cell-based, Haemonchus contortus; conditions: stably expressing cells; 400 ng/ml added 6 min before 75 nM α-LTX
[2] = biological target: T1, human muscarinic M1 acetylcholine receptor (Homo sapiens, UniProt P11229); type: cell-based; conditions: 400 ng/ml BAY44-4400
T1 construct: The full-length cDNA of a human muscarinic receptor 1 (huM1Rez); expressed in transfected cells; host or cells: HEK-293, transient (pEGFP-N3)
T1 sequence (P11229 1-460): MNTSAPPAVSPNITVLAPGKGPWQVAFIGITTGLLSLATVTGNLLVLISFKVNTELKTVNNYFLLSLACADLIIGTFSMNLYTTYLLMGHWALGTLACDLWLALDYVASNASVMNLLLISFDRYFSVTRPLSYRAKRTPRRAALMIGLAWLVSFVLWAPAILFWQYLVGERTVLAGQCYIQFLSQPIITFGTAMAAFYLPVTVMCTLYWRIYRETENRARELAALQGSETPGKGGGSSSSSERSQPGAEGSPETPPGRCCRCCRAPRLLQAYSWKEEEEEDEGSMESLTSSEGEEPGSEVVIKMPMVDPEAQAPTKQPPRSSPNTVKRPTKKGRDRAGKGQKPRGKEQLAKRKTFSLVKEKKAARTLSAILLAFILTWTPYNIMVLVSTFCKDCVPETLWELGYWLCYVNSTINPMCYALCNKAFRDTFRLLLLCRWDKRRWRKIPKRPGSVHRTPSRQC

[3] = test system: untransfected HEK-293 cells; experiment: Ca2+ imaging of untransfected or GFP-transfected HEK-293 cells (control); type: cell-based, human
Protocol: The intracellular free Ca^2+ concentration [Ca^2+]i was measured in COS-7 and HEK293 cells transiently transfected with the HC110-R-EGFP or β2-AR-EGFP construct using the calcium imaging method (see also FIG. 11). In each case 2×10^5 COS-7 and HEK293 cells were applied to a 42 mm cover glass coated with 1% gelatine in 55 mm tissue culture dishes with 5 ml of DMEM medium (with 10% FCS and pen/strep). The transfection took place with the aid of the non-liposomal transfection reagent FuGENE 6 (Roche Molecular Biochemicals, Mannheim). […] Constructs of the HC110-R full-length clone with a GFP tag fused in the correct reading frame, and the complete cDNA of the β2-adrenergic receptor which had likewise been provided with a GFP tag at the 3′ end, were transfected. […]
Loading of the cells with 1 μM Fura-2/acetoxymethyl ester (Fura-2/AM) (Sigma, Deisenhofen) took place 48 h after the transfection in an Na^+-HBS solution (150 mM NaCl; 5.4 mM KCl; 1.8 mM CaCl2; 0.8 mM MgSO4 7H2O; 20 mM glucose; 20 mM Hepes in H2O, pH 7.3) at 37° C., 5% CO2 and 95% humidity for 30 min. After the incubation, the cells loaded with Fura-2/AM were examined under an inverted microscope (Zeiss, Axiovert, Germany) and, in parallel with this, in a digital imaging fluorescence microscope (PTI) and differentiated into transfected and untransfected cells at a wavelength of 440 and 490 nm respectively. […]

[4] = test system: nematodes; experiment: Anthelmintic / neuropharmacological activity on nematodes

`CC(C)C[C@H]1C(=O)O[C@H](Cc2ccc(N3CCOCC3)cc2)C(=O)N(C)[C@@H](CC(C)C)C(=O)O[C@H](C)C(=O)N(C)[C@@H](CC(C)C)C(=O)O[C@H](Cc2ccc(N3CCOCC3)cc2)C(=O)N(C)[C@@H](CC(C)C)C(=O)O[C@H](C)C(=O)N1C` [BAY44-4400, cyclo(-D-Lac-L-MeLeu-D-p-morpholinyl-PhLac-L-MeLeu-)] was tested. Which “α-LTX-induced increase in [Ca2+]i in presence of substance” value [1] did it give?
The value was “complete inhibition”.

And the “carbachol-induced increase in [Ca2+]i in presence of BAY44-4400” value [2]?
Its value is 89 ± 5.5 nM.

And the “changes caused by substance” value [3]?
The value was “causes no changes in untransfected cells”.

And the “anthelmintic / nematicidal activity in words” value [4]?
The value was “very effective nematicide”.
